Patent US5561228A, “Macrocyclic immunomodulators” (Abbott Laboratories, priority 1994, dated 1996)
pIC50: −log10 of the molar value.

tested on: human mixed lymphocyte reaction (MLR); assay: human mixed lymphocyte reaction (MLR) assay; type: cell-based; details: immunosuppressant activity, Table 1
Protocol: The immunosuppressant activity of the compounds of the present invention was determined using the human mixed lymphocyte reaction (MLR) assay described by Kino, T. et al. in Transplantation Proceedings, XIX(5):36-39,Suppl. 6 (1987).

pIC50	SMILES
> 6.00	CC[C@@H]1/C=C(\C)C[C@H](C)C[C@H](OC)[C@H]2O[C@@](O)(C(=O)C(=O)N3CCCC[C@H]3C(=O)O[C@H](/C(C)=C/[C@@H](CC=NN(C)C)CCC#N)[C@H](C)[C@@H](O)CC1=O)[C@H](C)C[C@@H]2OC [Example 417]
> 6.00	CC[C@@H]1/C=C(\C)C[C@H](C)C[C@H](OC)[C@H]2O[C@@](O)(C(=O)C(=O)N3CCCC[C@H]3C(=O)O[C@H](/C(C)=C/[C@@H](CC=NO)CCC#N)[C@H](C)[C@@H](O)CC1=O)[C@H](C)C[C@@H]2OC [Example 419]
> 6.00	CC[C@@H]1/C=C(\C)C[C@H](C)C[C@H](OC)[C@H]2O[C@@](O)(C(=O)C(=O)N3CCCC[C@H]3C(=O)O[C@H](/C(C)=C/[C@@H](CC=NOCC(=O)O)CCC#N)[C@H](C)[C@@H](O)CC1=O)[C@H](C)C[C@@H]2OC [Example 421]
> 6.00	CC[C@@H]1/C=C(\C)C[C@H](C)C[C@H](OC)[C@H]2O[C@@](O)(C(=O)C(=O)N3CCCC[C@H]3C(=O)O[C@H](/C(C)=C/[C@@H](CCO)CCC#N)[C@H](C)[C@@H](O)CC1=O)[C@H](C)C[C@@H]2OC [Example 425]
